Assay results as given in patent US5767253A, “A83543 Compounds; factors Q, R, S, and T” (priority 1995, dated 1998).
Values after ≈ are worked out from the molar mass of the structure shown.

Legend:
Southern Corn Rootworm = test: Mite/insect screen, Southern Corn Rootworm (SCRW); assay type: in vivo, Diabrotica undecimpunctata howardi; conditions: 264 h, 11 day, mean of single replicate tests
Description: (§1) The Formula 2 compounds were tested for miticidal and insecticidal activity in the following mite/insect screen. Each test compound was formulated by dissolving the compound in an acetone-alcohol (1:1) mixture containing 23 g of TOXIMUL R (sulfonate/nonionic emulsifier blend) and 13 g of TOXIMUL S (sulfonate/nonionic emulsifier blend) per liter. These mixtures were then diluted with water to give the indicated concentrations.
(§2) Two-spotted spider mites and cotton aphids were introduced on squash cotyledons and allowed to establish on both leaf surfaces. The leaves were then sprayed with 5 ml of test solutions using a DeVilbiss atomizing sprayer at 10 psi. Both surfaces of the leaves were covered until run off and then allowed to dry for one hour. After standard exposure periods percent mortality was evaluated. Additional insects were evaluated using similar formulations and evaluation procedures. The results are reported in Table V. The following abbreviations are used: […]

Cotton Aphid = test: Mite/insect screen, Cotton Aphid (CA); assay type: in vivo, Aphis gossypii Glover; conditions: Aphis gossypii, 4-5 day, mean of single replicate tests
Description: as §1, §2

Rootknqt Nemat.ode = test: Mite/insect screen, Rootknot Nematode (NEM); assay type: in vivo, Meliiodyne spp.; conditions: 264 h, 11 day, mean of single replicate tests
Description: as §1, §2

Adult Stablefly = test: Activity against adult stablefly (in vitro); assay type: in vivo; conditions: Stomoxys calcitrans
Description: (§3) Tables VII and VIII summarize in vitro studies using compounds of the present invention against members of the insect order Diptera.

Aster Leafhopper = test: Mite/insect screen, Aster Leafhopper (ALH); assay type: in vivo; conditions: Macrosteles fascifrons, 24 hr, mean of single replicate tests
Description: as §1, §2

Blowfly Larvae = test: Activity against blowfly larvae (in vitro); assay type: in vivo
Description: as §3

German Cockroach = test: Mite/insect screen, German Cockroach (GECR); assay type: in vivo; conditions: Blattella germanica, mean of single replicate tests
Description: as §1, §2

neonate tobacco budworm = test: LD50 against neonate tobacco budworm; assay type: in vivo; conditions: Heliothis virescens; neonate larvae; mean of two tests; mortality evaluated at 24 and 48 hours
Description: The Formula 2 compounds were evaluated in the following assay to determine the LD50 against neonate tobacco budworm (Heliothis virescens). A petri dish (100 mm ×20 mm) is inverted and the lid lined with a #1 qualitative filter paper. Ten neonate larvae are placed in each dish and a 1 ml test solution is pipetted onto the insects. The petri dish bottom is then placed on the lid to contain the larvae. At 1 hr. after treatment, a small piece of Heliothis diet (modified slurry, Southland Products, Lake Village, Ariz.) is added to each dish. The mortality is evaluated at 24 and 48 hours. The tests were run in triplicate.

Beet Armyworm = test: Mite/insect screen, Beet Armyworm (BAW); assay type: in vivo, Spodoptera exiqua; conditions: Spodoptera exigua, 144 h, 6 day, mean of single replicate tests
Description: as §1, §2

Two-spotted Spider Mite = test: Mite/insect screen, Two-spotted Spider Mite (TSSM); assay type: in vivo; conditions: Tetranychus urticae, 4-5 day, mean of single replicate tests
Description: as §1, §2

Tobacco Budworm = test: Mite/insect screen, Tobacco Budworm (TBW); assay type: in vivo; conditions: Heliothis virescens, 144 h, 6 day, mean of single replicate tests
Description: as §1, §2

SMILES | inhibition at 400 ppm (Southern Corn Rootworm) [%] | inhibition at 50 ppm (Cotton Aphid) [%] | inhibition at 400 ppm (Cotton Aphid) [%] | inhibition at 400 ppm (Rootknqt Nemat.ode) [%] | inhibition at 50 ppm (Aster Leafhopper) [%] | inhibition at 400 ppm (Aster Leafhopper) [%] | % mortality (Blowfly Larvae; 5 ppm, 24 hrs.) [%] | % mortality (Blowfly Larvae; 5 ppm, 48 hrs.) [%] | % mortality (Blowfly Larvae; 10 ppm, 24 hrs.) [%] | inhibition at 50 ppm (German Cockroach; 168 h, 7 day) [%] | inhibition at 400 ppm (German Cockroach; 168 h, 7 day) [%] | inhibition at 50 ppm (German Cockroach; 504 h, 21 day) [%] | inhibition at 400 ppm (German Cockroach; 504 h, 21 day) [%] | LC50 (neonate tobacco budworm) [µg/mL] | inhibition at 50 ppm (Beet Armyworm) [%] | inhibition at 400 ppm (Beet Armyworm) [%] | inhibition at 50 ppm (Two-spotted Spider Mite) [%] | inhibition at 400 ppm (Two-spotted Spider Mite) [%] | inhibition at 21 ppm (Tobacco Budworm) [%] | inhibition at 64 ppm (Tobacco Budworm) [%] | other results
CC[C@H]1CCC[C@H](O[C@H]2CC[C@H](N(C)C)[C@@H](C)O2)[C@@H](C)C(=O)C2=C[C@@H]3[C@@H](C=C(C)[C@@H]4C[C@@H](O[C@@H]5O[C@@H](C)[C@H](OC)[C@@H](OC)[C@H]5O)C[C@@H]34)[C@@H]2CC(=O)O1 [A83543Q] | 0 | 0 | 0 | 0 | 100 | 100 | 90 | 90 | 100 | 0 | 0 | 0 | 0 | 0.39 (≈ 0.533 µM) | 100 | 100 | 70 | 100 | 100 | 100 | mortality at 5 ppm (Adult Stablefly; 24 h): 50%; mortality at 10 ppm (Adult Stablefly; 24 h): 90%; mortality at 5 ppm (Adult Stablefly; 48 h): 90%; mortality at 10 ppm (Adult Stablefly; 48 h): 100%; % mortality (Blowfly Larvae; 10 ppm, 48 hrs.): 100%
CO[C@@H]1[C@@H](OC)[C@@H](O)[C@H](O[C@H]2C[C@H]3[C@@H]4C=C5C(=O)[C@H](C)[C@@H](O[C@H]6CC[C@H](N(C)C)[C@@H](C)O6)CCC[C@H](C)OC(=O)C[C@H]5[C@@H]4C=C[C@@H]3C2)O[C@H]1C [A83543S] | 0 | 0 | 0 | 0 | 60 | 100 | 0 | 0 | 60 | 0 | 0 | 0 | 20 | 53 (≈ 75.3 µM) | 100 | 100 | 0 | 0 | 26 | 53 | mortality at 50 ppm (Adult Stablefly; 24 h): 100%; mortality at 100 ppm (Adult Stablefly; 24 h): 90%; mortality at 50 ppm (Adult Stablefly; 48 h): 100%; mortality at 100 ppm (Adult Stablefly; 48 h): 100%; % mortality (Blowfly Larvae; 10 ppm, 48 hrs.): 60%
CC[C@H]1CCC[C@H](O[C@H]2CC[C@H](N(C)C)[C@@H](C)O2)[C@@H](C)C(=O)C2=C[C@@H]3[C@@H](C=C[C@@H]4C[C@@H](O[C@@H]5O[C@@H](C)[C@H](OC)[C@@H](O)[C@H]5O)C[C@@H]34)[C@@H]2CC(=O)O1 [A83543T] | 0 | 0 | 0 | 0 | 20 | 100 |  |  |  | 0 | 0 | 0 | 0 | > 64 | 0 | 0 | 0 | 0 | 0 | 0 | mortality at 50 ppm (Adult Stablefly; 24 h): 60%; mortality at 100 ppm (Adult Stablefly; 24 h): 80%; mortality at 50 ppm (Adult Stablefly; 48 h): 70%; mortality at 100 ppm (Adult Stablefly; 48 h): 90%; % mortality (Blowfly Larvae; 50 ppm, 24 hrs.): 0%; % mortality (Blowfly Larvae; 50 ppm, 48 hrs.): 0%; % mortality (Blowfly Larvae; 100 ppm, 24 hrs.): 0%; % mortality (Blowfly Larvae; 100 ppm, 48 hrs.): 0%
CC[C@H]1CCC[C@H](O[C@H]2CC[C@H](NC)[C@@H](C)O2)[C@@H](C)C(=O)C2=C[C@@H]3[C@@H](C=C[C@@H]4C[C@@H](O[C@@H]5O[C@@H](C)[C@H](OC)[C@@H](OC)[C@H]5O)C[C@@H]34)[C@@H]2CC(=O)O1 [A83543R] | 0 | 0 | 0 | 0 | 0 | 0 | 90 | 100 | 100 | 0 | 0 | 20 | 0 | 14.5 (≈ 20.6 µM) | 0 | 0 | 85 | 90 | 63 | 88 | mortality at 5 ppm (Adult Stablefly; 24 h): 70%; mortality at 10 ppm (Adult Stablefly; 24 h): 90%; mortality at 5 ppm (Adult Stablefly; 48 h): 100%; mortality at 10 ppm (Adult Stablefly; 48 h): 100%; % mortality (Blowfly Larvae; 10 ppm, 48 hrs.): 100%
